“Also recorded” adds a separate entry of the source.
Columns and labels:
JNK [1] = molecular target: T1, JNK (Homo sapiens, UniProt P45983); assay: JNK activity in HeLa cells; type: cell-based; design: endogenous in cells; settings: even in the absence of TNFα
Method: (§1) Cells used in the experiments described herein were cultured in either RPMI 1640 (Jurkat cells) or DMEM (HeLa and COS cells), supplemented with 10% FBS and antibiotics. Cells were stimulated with either 25 ng/ml TPA, 20 ng/ml recombinant TNFα, or 10 ng/ml interleukin 1β (Sigma). PGA1, 15dPGJ2, T×B2, LTB4, AA and other PGs (Cayman) dissolved in ethanol were used as well, as known in the art (See e.g., Rossi et al., 94:746-750 [1997]). Controls received equal amounts of ethanol. Transfections were performed using Lipofectamine Plus (GIBCO) for HeLa and COS cells and DEAE-dextran (Sigma) for Jurkat cells. Xpress-tagged NIK, Xpress-tagged MEKK1, HA-tagged IKKα, and HA-tagged IKKβ were also used (See e.g., Zandi et al., Science 281:1360-1363 [1998]; and Delhase et al., Science 284:309-313 [1999]). COX2 and cPLA2 expression vectors were obtained from Dr. L. Feng (See also, Hirose et al., J. Am. Soc. Nephrol., 9:408-416 [1998]). PGD synthase was cloned from HT29 colon carcinoma cell line cDNA by PCR and subcloned into a pCDNA3 vector. […]
(§2) Cell lysates were incubated with anti-IKKα (Pharmingen), anti-HA (12CA5; Pharmingen), anti-JNK1 (333.8; Pharmingen), or anti-p38 (New England Biolabs) for 2 hours. […] Endogenous IKK, HA-tagged IKKα, endogenous JNK1, and p38 activities were determined with GST-1κBα(1-54), GST-c-Jun(1-79), and GST-ATF2 as substrates.

IKK [2] = molecular target: T2, IKK (Homo sapiens, UniProt O14920+O15111); assay: TNFα-induced IKK activity in human peripheral blood monocytes; type: cell-based
T2 sequence (O15111 whole entry, one chain of several): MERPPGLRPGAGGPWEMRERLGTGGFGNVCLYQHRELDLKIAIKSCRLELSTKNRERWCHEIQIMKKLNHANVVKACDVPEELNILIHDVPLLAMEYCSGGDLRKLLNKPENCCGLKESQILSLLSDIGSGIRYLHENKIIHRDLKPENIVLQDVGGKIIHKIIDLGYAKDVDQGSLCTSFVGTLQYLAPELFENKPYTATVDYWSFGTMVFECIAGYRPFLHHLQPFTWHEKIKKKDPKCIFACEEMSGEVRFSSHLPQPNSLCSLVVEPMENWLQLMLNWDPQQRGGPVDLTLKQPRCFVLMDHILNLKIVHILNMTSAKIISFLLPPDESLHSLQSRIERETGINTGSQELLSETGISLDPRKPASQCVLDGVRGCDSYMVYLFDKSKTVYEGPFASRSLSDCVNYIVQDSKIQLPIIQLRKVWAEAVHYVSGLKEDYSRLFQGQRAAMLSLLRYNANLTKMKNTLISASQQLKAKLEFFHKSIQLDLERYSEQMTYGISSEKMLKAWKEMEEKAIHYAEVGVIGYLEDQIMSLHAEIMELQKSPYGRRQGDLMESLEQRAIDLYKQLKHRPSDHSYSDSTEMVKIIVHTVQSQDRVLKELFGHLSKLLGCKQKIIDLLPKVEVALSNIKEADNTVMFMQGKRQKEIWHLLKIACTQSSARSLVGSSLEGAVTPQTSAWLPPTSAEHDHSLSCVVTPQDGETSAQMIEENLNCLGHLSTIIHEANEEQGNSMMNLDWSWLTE
T2 sequence (Q9Y6K9 whole entry partner, one chain of several): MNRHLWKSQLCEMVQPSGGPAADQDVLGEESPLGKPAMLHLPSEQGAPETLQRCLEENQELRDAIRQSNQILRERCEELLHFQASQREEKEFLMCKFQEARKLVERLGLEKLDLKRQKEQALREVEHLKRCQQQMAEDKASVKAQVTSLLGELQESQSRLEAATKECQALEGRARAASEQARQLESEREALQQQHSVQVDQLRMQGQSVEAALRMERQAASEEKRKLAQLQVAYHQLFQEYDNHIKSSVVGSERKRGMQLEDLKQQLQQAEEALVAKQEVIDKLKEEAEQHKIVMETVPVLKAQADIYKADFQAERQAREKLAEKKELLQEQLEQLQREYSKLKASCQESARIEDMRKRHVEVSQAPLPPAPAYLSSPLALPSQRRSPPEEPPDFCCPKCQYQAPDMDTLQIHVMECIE

IKK [3] = molecular target: T2, IKK; assay: Endogenous IKK activity (kinase assay) in Jurkat cells stimulated with TNFα or TPA; type: cell-based; design: endogenous in cells
Method: as §1
as §2, with “substrates. […]” for “substrates.”

IKK [4] = assay: NIK-induced endogenous IKK activity in transfected COS cells; type: cell-based; settings: PGA1 added 10 min or 18 h after transfection
Method: as §1, §2

IKKβ = molecular target: T3, IKKβ (Homo sapiens, UniProt O14920); assay: HA-tagged IKKβ overexpressed in COS cells: kinase activity and expression; type: cell-based
T3 sequence (O14920 1-756): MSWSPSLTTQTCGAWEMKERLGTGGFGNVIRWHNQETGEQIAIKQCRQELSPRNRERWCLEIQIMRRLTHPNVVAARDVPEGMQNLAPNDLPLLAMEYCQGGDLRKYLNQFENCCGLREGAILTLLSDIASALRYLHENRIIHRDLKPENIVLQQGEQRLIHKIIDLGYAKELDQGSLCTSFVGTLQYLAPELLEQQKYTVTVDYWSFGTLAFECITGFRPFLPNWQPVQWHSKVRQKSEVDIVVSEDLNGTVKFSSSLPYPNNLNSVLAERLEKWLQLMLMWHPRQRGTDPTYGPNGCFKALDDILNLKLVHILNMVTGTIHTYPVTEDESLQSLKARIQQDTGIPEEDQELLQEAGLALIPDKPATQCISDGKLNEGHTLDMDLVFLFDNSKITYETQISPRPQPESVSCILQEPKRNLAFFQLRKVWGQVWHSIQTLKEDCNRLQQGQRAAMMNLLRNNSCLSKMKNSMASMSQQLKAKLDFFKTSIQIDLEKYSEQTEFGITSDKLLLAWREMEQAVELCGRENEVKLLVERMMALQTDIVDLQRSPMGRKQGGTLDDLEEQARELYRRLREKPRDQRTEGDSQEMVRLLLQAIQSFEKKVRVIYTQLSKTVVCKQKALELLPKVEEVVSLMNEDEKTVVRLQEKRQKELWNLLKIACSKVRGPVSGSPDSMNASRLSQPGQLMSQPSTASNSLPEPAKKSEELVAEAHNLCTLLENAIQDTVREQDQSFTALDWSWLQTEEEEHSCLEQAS
Method: as §1, §2

IKKα = molecular target: T4, IKKα (Homo sapiens, UniProt O14920+O15111); assay: NIK-induced HA-tagged IKKα associated kinase activity in COS cells; type: cell-based; settings: PGA1 added immediately after or 18 hours after transfection
T4 construct: expressed in transfected cells; host or cells: COS
T4 sequence (O15111 whole entry, one chain of several): as the sequence (O15111 whole entry, one chain of several) above
T4 sequence (Q9Y6K9 whole entry partner, one chain of several): as the sequence (Q9Y6K9 whole entry partner, one chain of several) above
Method: as §1, §2

JNK [5] = molecular target: T1, JNK; assay: JNK activation in TPA-stimulated Jurkat cells; type: cell-based; design: endogenous in cells; host or cells: Jurkat; settings: 24 μM PGA1, TPA
Method: as §1
as §2, with “substrates. […]” for “substrates.”

IKK [6] = assay: MEKK1-induced IKK activity in COS cells; type: cell-based; settings: data not shown
Method: as §1, §2

NF-κB = NF-κB activation by EMSA in Jurkat cells stimulated with TNFα or TPA; type: cell-based, human
Method: as §1, with “vector. Cells were lysed in buffer B (50 mM Tris-HCl, pH 7.5, 400 mM NaCl, 1 mM EDTA, 1 mM EGTA, 1% Triton, 0.5% NP-40, 10% glycerol, and supplemented with 20 mM β-glycerophosphate, 10 mM PNPP, […] 1 mM PMSF, 20 μg/ml aprotinin, 2.5 μg/ml leupeptin, 8.3 μg/ml bestatin, 1.7 μg/ml pepstatin, and 2 mM DTT).” for “vector.”

T1 sequence (P45983 whole entry): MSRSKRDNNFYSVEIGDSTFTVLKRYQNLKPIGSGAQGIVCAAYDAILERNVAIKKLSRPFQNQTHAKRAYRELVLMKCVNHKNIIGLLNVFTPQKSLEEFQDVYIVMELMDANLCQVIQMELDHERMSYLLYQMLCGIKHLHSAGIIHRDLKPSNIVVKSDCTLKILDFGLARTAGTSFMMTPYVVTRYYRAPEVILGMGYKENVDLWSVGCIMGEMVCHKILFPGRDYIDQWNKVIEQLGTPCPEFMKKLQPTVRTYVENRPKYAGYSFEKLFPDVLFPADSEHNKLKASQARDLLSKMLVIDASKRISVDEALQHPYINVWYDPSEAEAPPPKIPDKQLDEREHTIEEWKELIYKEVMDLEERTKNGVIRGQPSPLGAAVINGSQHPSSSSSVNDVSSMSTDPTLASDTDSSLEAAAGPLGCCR

Structure (SMILES): CCCCC/C=C/C=C1/C(=O)C=C[C@@H]1C/C=C\CCCC(=O)O [15dPGJ2, 15-deoxy-Δ^12-14-PGJ2]
- effect on JNK activity (JNK [1]): stimulated
- effect on TNFα-induced IKK activity (IKK [2]): inhibited

Structure (SMILES): CCCCC[C@H](O)/C=C/[C@H]1C=CC(=O)C1CCCCCCC(=O)O (stereo partly drawn) [PGA1, prostaglandin A1]
- effect on IKK activity (IKK [3]; 24 μM PGA1 2 hours, TNFα or TPA): inhibit IKK activity; also recorded: inhibited
- effect on IKK activity after 15 minute exposure (IKK [3]; 15-min exposure, TPA 15 minutes): partially inhibit
- effect on NIK-induced activation of endogenous IKK activity (IKK [4]): inhibited; also recorded: prevents
- effect on IKKβ expression (immunoblotting) (IKKβ; COS cells overexpressing HA-tagged IKKβ): did not affect
- effect on kinase activity of overexpressed HA-tagged IKKβ (IKKβ; COS cells, PGA1 15 or 30 μM, FIG. 2C): strongly inhibited; also recorded: inhibits
- effect on NIK-induced IKK activity (HA-IKKα) (IKKα): inhibited
- effect on activation of JNK (JNK [5]): did not inhibit
- effect on MEKK1-induced IKK activity (IKK [6]): inhibited
- IC50 (NF-κB; Homo sapiens, read-out: half-maximal inhibitory (IC50) concentration towards NF-κB): 12 µM
- effect on NF-κB activation (NF-κB; TNFα or TPA): prevented

From US6649654B1, “Methods for identifying and using IKK inhibitors” (The Regents of the University of California, priority 1999, dated 2003)
